These results are taken from PubChem BioAssay (NCI).

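Five concentrations, 48 hours, 96-well plates. At the GI50, growth is halved. TGI marks complete inhibition of growth.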 Bounds are passed on as bounds.

Some test systems named below: A549 NSCLC; KM12 colon; NCI-H23 lung; NCI-H522 lung; OVCAR-8 ovarian; SF-268 CNS; SK-MEL-5 melanoma; SNB-19 CNS; SW-620 colon; T-47D breast; U251 CNS; CCRF-CEM leukemia; MOLT-4 leukemia; SK-OV-3 ovarian.
Common to all, as to experiment: NCI tumour cell line growth inhibition, 48 h

Consider `Cn1ccc(C(=O)NCCOCCNC(=O)c2ccn(C)c(=O)c2O)c(O)c1=O`, for which the TGI in the assay with A549 NSCLC, in the assay with KM12 colon, with NCI-H23 lung, in the assay with NCI-H522 lung, in the assay with OVCAR-8 ovarian and with SF-268 CNS was over 100 µM each time. For the same compound, the TGI in the assay on SK-MEL-5 melanoma, in the assay with SNB-19 CNS, in the assay on SW-620 colon, with T-47D breast and in the assay on U251 CNS was over 100 µM each time.
For `CC1(C)c2ccccc2C(=O)C12CCC(=O)CC2`, the TGI with A549 NSCLC, with CCRF-CEM leukemia, in the assay on KM12 colon, with MOLT-4 leukemia, in the assay with NCI-H23 lung and with NCI-H522 lung was over 100 µM each time. Also, the TGI with OVCAR-8 ovarian, in the assay with SF-268 CNS, with SK-OV-3 ovarian, with SNB-19 CNS, in the assay with SW-620 colon and in the assay on T-47D breast was over 100 µM in each case. The same compound gave a TGI in the assay on U251 CNS of over 100 µM.
For `C[C@H]1[C@H](C)CC[C@]2(C)CC[C@]3(C)C(=C[C@@H](O)[C@@H]4[C@@]5(C)[C@H](O)[C@@H](O)[C@H](O)C(C)(C)[C@@H]5CC[C@]43C)[C@H]12`, the TGI with A549 NSCLC, with CCRF-CEM leukemia, in the assay with KM12 colon, with MOLT-4 leukemia, with NCI-H23 lung and in the assay on OVCAR-8 ovarian was over 100 µM throughout. For the same compound, the TGI in the assay on SF-268 CNS, in the assay with SK-MEL-5 melanoma, in the assay on SK-OV-3 ovarian, in the assay with SNB-19 CNS, in the assay with SW-620 colon and in the assay with T-47D breast was over 100 µM throughout. For the same compound, the TGI in the assay on U251 CNS was over 100 µM. Further, the GI50 with T-47D breast was 18.7 µM.
As for `CCN1CCN(c2ccc(Nc3ccnc4ccc5nn(C)nc5c34)cc2)CC1`, the TGI with A549 NSCLC is 27.3 µM; in the assay on CCRF-CEM leukemia it was over 100 µM; in the assay with KM12 colon, 24 µM; in the assay on MOLT-4 leukemia, over 100 µM; in the assay with NCI-H23 lung it was 29.4 µM; in the assay with NCI-H522 lung it was 23.6 µM. Moreover, the TGI was 25.3 µM in the assay on OVCAR-8 ovarian; 29.8 µM in the assay on SF-268 CNS; 28.5 µM in the assay with SK-MEL-5 melanoma; 31.5 µM with SK-OV-3 ovarian; 43.9 µM with SNB-19 CNS; 19.7 µM in the assay with SW-620 colon. This compound also returned a TGI with U251 CNS of 27 µM.
In the case of `CCN(CC)c1ccc2cc(-c3nnc(-c4ccccc4)o3)c(=O)oc2c1`, the TGI was over 100 µM in the assay with A549 NSCLC; over 100 µM in the assay on CCRF-CEM leukemia; over 100 µM in the assay with KM12 colon; over 100 µM in the assay on NCI-H23 lung; over 100 µM in the assay on NCI-H522 lung; 98.4 µM with OVCAR-8 ovarian. Further, the TGI with SF-268 CNS is over 100 µM; in the assay on SK-MEL-5 melanoma, over 100 µM; with SK-OV-3 ovarian it was 21.2 µM; with SNB-19 CNS it was over 80.9 µM; with SW-620 colon it was over 100 µM; in the assay on T-47D breast, over 71.4 µM. Besides, the TGI with U251 CNS was over 100 µM.
Take `O=C(C[n+]1ccccc1)NNC(=O)/C(=C/c1ccc2c(c1)OCO2)NC(=O)c1ccccc1`: the TGI in the assay with A549 NSCLC was over 100 µM; in the assay on CCRF-CEM leukemia it was 65 µM; in the assay with KM12 colon, over 100 µM; in the assay with MOLT-4 leukemia it was 82.7 µM; in the assay with NCI-H23 lung it was over 100 µM; in the assay on NCI-H522 lung, over 70.8 µM. Moreover, the TGI is over 85 µM in the assay with OVCAR-8 ovarian; over 100 µM in the assay with SF-268 CNS; 98.4 µM in the assay with SK-MEL-5 melanoma; over 100 µM with SK-OV-3 ovarian; over 100 µM in the assay on SNB-19 CNS; over 100 µM with SW-620 colon. This compound showed a TGI with U251 CNS of over 76.5 µM.
`CC1=NC(=Cc2ccc(O)cc2)C(=O)N1n1c(-c2ccccc2)nc2ccccc2c1=O`: the TGI in the assay on A549 NSCLC, with CCRF-CEM leukemia, in the assay with KM12 colon, with MOLT-4 leukemia, in the assay with NCI-H23 lung and in the assay on NCI-H522 lung was over 100 µM throughout. Besides, the TGI with OVCAR-8 ovarian, in the assay with SF-268 CNS, with SK-MEL-5 melanoma, in the assay on SK-OV-3 ovarian, in the assay with SNB-19 CNS and in the assay on SW-620 colon was over 100 µM each time. The compound further registered a TGI with T-47D breast of over 100 µM.
For the compound `CC(=O)N(C(=O)CC(=O)N/N=C\c1ccc(Br)c(N(CCC#N)CCC#N)c1)c1ccc(Cl)cc1`, the TGI in the assay with A549 NSCLC, with CCRF-CEM leukemia, in the assay on KM12 colon, with MOLT-4 leukemia, in the assay with NCI-H23 lung and in the assay on OVCAR-8 ovarian was over 100 µM throughout. In addition, the TGI in the assay on SF-268 CNS, with SK-OV-3 ovarian, in the assay on SNB-19 CNS, in the assay with SW-620 colon, in the assay with T-47D breast and in the assay on U251 CNS was over 100 µM throughout.
Regarding `N#CSc1nc[nH]c1C(N)=O`, the TGI with A549 NSCLC is over 100 µM; in the assay on CCRF-CEM leukemia, 14.4 µM; in the assay on KM12 colon, over 100 µM; in the assay on NCI-H23 lung it was over 100 µM; in the assay with NCI-H522 lung, over 100 µM; with OVCAR-8 ovarian it was over 100 µM. Further, the TGI with SF-268 CNS, in the assay on SK-MEL-5 melanoma, in the assay on SK-OV-3 ovarian, in the assay with SNB-19 CNS, with SW-620 colon and in the assay with T-47D breast was over 100 µM in each case. For the same compound, the TGI with U251 CNS was over 100 µM.
Take `Clc1ccc(-c2c(C3=NCCN3)nnn2-c2ccc(Cl)cc2)cc1`: the TGI in the assay on A549 NSCLC was over 100 µM; in the assay with CCRF-CEM leukemia, 73 µM; in the assay with KM12 colon, 56.3 µM; with MOLT-4 leukemia, 29 µM; in the assay with NCI-H23 lung it was over 100 µM; with NCI-H522 lung, 30.1 µM. Moreover, the TGI is over 100 µM in the assay with OVCAR-8 ovarian; over 100 µM with SF-268 CNS; 30.5 µM with SK-MEL-5 melanoma; 93.3 µM with SK-OV-3 ovarian; over 100 µM with SNB-19 CNS; 73.8 µM with SW-620 colon. In the assay with U251 CNS, the TGI turned out to be 45.2 µM.
